Earlier results in patent US8586092B2 (Xi'an Libang Pharmaceutical Technology Co., Ltd., priority 2009, dated 2013).
Values belong to the molecule of their own block, whether it stands above or below them.

What was measured:
mouse = details: in vivo, sc
rat = details: orally administered to rat

SMILES: CCO [ethanol]
LD50 (mouse): 8285 mg/kg

SMILES: O=C(OCc1ccccc1)c1ccccc1 [Benzyl benzoate]
LD50 (rat): 500 mg/kg

aqueous solubility: around 10 ng/ml
SMILES: C[C@]12CC[C@@H]3c4ccc(O)cc4C[C@@H](CCCCCCCCC[S+]([O-])CCCC(F)(F)C(F)(F)F)[C@H]3[C@@H]1CC[C@@H]2O (stereo partly drawn) [Fulvestrant, 7-alpha-[9-(4,4,5,5,5-pentafluoropentylsulphinyl)nonyl]estra-1,3,5-(10)-triene-3,17-beta-diol]
